From paper PMC10447463, “Data-mining unveils structure–property–activity correlation of viral infectivity enhancing self-assembling peptides” (Nature Communications, 2023)

What was measured:
[1] = Aggregate analysis by widefield fluorescence microscopy; assay type: physicochemical
Procedure, shortened: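 First, each peptide (1 mg/mL in PBS, from DMSO stock) incubates 1 d at room temperature; next, it is mixed with 50 µM ThT to 0.1 mg/mL; finally, widefield images at 10x (ex 480/40, em 527/30 nm) are analysed by object counting for particles exceeding 10 µm^2, in triplicate.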

[2] = previously reported peptides only; ref sieste 2021 or Schilling2019; cited from earlier work
Excerpt: Supplement 41467_2023_40663_MOESM7_ESM.zip/FigS17.csv, table | column: Conversion Rate / % ( from sieste 2021 or Schilling2019)

[3] = tested on: HIV-1 infection of TZM-bl cells; settings: literature report; cited from earlier work
Excerpt: page 30: 8. Amyloid peptides from functional and pathogenic contexts Table S1 Selected amyloid peptides from protein data bases and literature reports. Note, that the peptide KLVFFAK, derived from amyloid ab was reported for retroviral transduction enhancement, however with very low efficiencies (> 4 fold compared to virus only). 33 ”+” indicates reported ThT fluorescence (ThT) or fibril formation, “0” indicates no data reported. All peptides were synthesized via Fmoc SPPS protocol and purchased . w ≥ . sequence ThT fibril pI charge hfauchere derived from original context ref. IKFLSVN + + 9.7 ...

[4] = Fig S8 panels A, C, 3 fields of 1330 µm x 1330 µm
[5] = Fig S8 panels B, D, average aggregate area, 3 fields of 1330 µm x 1330 µm
[6] = Fig S8 panels B, D, median aggregate area, 3 fields of 1330 µm x 1330 µm
[7] = Fig S8 panels B, D, 3 fields of 1330 µm x 1330 µm
[8] = Fig S8 panels B, D, widefield fluorescence microscopy, 3 fields of 1330 µm x 1330 µm

Substance | Avg Area in 3 *(1330 µm *1330 µm) ([1]; Fig S8 panels A, C) | Log 10 Number of aggregates in 3 * (1330 µm *1330 µm) ([1]; Fig S8 panels A, C) | Median Area in 3 * (1330 µm *1330 µm) ([1]; Fig S8 panels A, C) | log Avg Area in 3 * ( (1330 µm *1330 µm)) ([1]; Fig S8 panels A, C) | log Median Area in 3 * ( (1330 µm *1330 µm)) ([1]; Fig S8 panels A, C) | log Total Area of all particles in 3 * (1330 µm *1330 µm) ([1]; Fig S8 panels A, C) | Number of aggregates in 3 * (1330 µm *1330 µm) [1, 4] | Avg Area in 3 *(1330 µm *1330 µm) [1, 5] | Median Area in 3 * (1330 µm *1330 µm) [1, 6] | Total Area of all particles in 3 * (1330 µm *1330 µm) [1, 7] | Number of aggregates in 3 * (1330 µm *1330 µm) [1, 8] | Conversion Rate / % ( from sieste 2021 or Schilling2019) [2] | retroviral transduction enhancement compared to virus only [3]
HHHHKIKIQINMYYYY [TM16] | 97.09 | 2.3686 | 27.74 | 1.987 | 1.443 | 4.356 | 233.7 | 97.09 | 27.74 | 22686.609 | 233.7 | – | –
HIHIQIC [CN12] | 747.6 | 1.523 | 85.979 | 2.874 | 1.934 | 4.397 | 33.33 | 747.6 | 85.979 | 24920.46633 | 33.33 | – | –
KFKFQFFF [TG12] | – | – | – | – | – | – | – | – | – | – | – | 99% | –
KIKIQIII [TG7] | – | – | – | – | – | – | – | – | – | – | – | 87% | –
KIKIQIN [JGB3] | 197.4 | 0.6021 | 197.8005 | 2.295 | 2.296 | 2.897 | 4 | 197.4 | 197.8005 | 789.7 | 4 | – | –
KIKQIIN [JGA3] | 51.51 | 1.067 | 15.7 | 1.712 | 1.196 | 2.779 | 11.67 | 51.51 | 15.7 | 600.94 | 11.67 | – | –
KLVFFAK [reference compound] | – | – | – | – | – | – | – | – | – | – | – | – | > 4 fold
RGDKIKIQINM [MG8a / CN17] | – | – | – | – | – | – | – | – | – | – | – | 48% | –
RGDSGGGGGGKIKIQIC [TM114 / RC17] | 372.8 | 1.857 | 53.0945 | 2.572 | 1.725 | 4.429 | 72 | 372.8 | 53.0945 | 26843.97667 | 72 | – | –
